# Tests used:
# Format in all cases: in vivo
# [1] = system: Housefly [Musca domestica]; assay: Housefly contact mortality in dishes (HF), 48 hours; settings: μg of test compound per 25 female flies
# Outline: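 LC50 (μg compound per 25 female flies) derives from dosage-mortality curves of 48 h kill. Flies, females 1-2 days old, were held 25 per cage over a dish coated with dried acetone deposit, starting at 100 μg per cage and descending.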
# [2] = system: Black Bean Aphid [Aphis fabae (Scop.)]; assay: Black bean aphid spray test on nasturtium (BBA), 48 hours; settings: percent of test compound in sprayed solution
# Outline: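 LC50, given as percent test compound in the sprayed liquid, was calculated from dosage-mortality curves using concentrations from 0.05% downward. Sprays in 50:50 acetone-water went to runoff on ~5 cm nasturtiums carrying 25-50 aphids of mixed ages, one day after infestation. Deaths were counted 48 h later under greenhouse conditions.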
# [3] = system: Tobacco Budworm [Heliothis virescens (Fabricius)] larvae; assay: Tobacco budworm larvae, contact (TBW-C), 5 days; settings: percent in solution, second-instar larvae
# Outline: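 Cotton cotyledons dipped 2–3 s in compound in 50-50 acetone-water, dried, then infested with 5 second-instar larvae and held 5 days at high humidity. Mortality scored; LC50 from dosage-mortality curves, expressed as percent compound in solution, concentrations from 0.1% downward.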
# [4] = system: Tobacco Budworm [Heliothis virescens (Fabricius)] eggs; assay: Tobacco budworm eggs (TBW-E); settings: percent in solution; 2-day old eggs
# Outline: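 Step 1: dip 2-day old egg patches in acetone test solutions (top concentration 0.1%). Step 2: hold in dishes with rearing medium at 78° F. Step 3: record mortality after control hatch and feeding.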
# [5] = system: Beet Armyworm (Spodoptera exigua); assay: Beet armyworm leaf dip (BAW), 5 days; settings: percent in solution; second-instar larvae; five days
# Description: The compounds in Tables 1 and 2 above were tested for insecticidal activity using the following testing procedures. LC50 values, based on the results of these tests and calculated according to dosage-mortality curves, are expressed in Table 3.
# Beet Armyworm (Spodoptera exigua):
# Test compounds were diluted in a 50-50 acetone-water solution. Young leaves of sugar beets (Beta vulgaris) were immersed in the test solutions for 2-3 seconds and placed on a wire screen to dry. The dried leaves were placed in petri dishes containing a moistened filter paper and infested with five second-instar beet armyworm larvae. The dishes were placed in a high humidity chamber. Mortality of the larvae was recorded five days later. Test concentrations ranged from 0.1% downward. The LC-50 values are expressed below in Table 3 under the heading "BAW" in terms of percent of the test compound in solution.
# [6] = system: Cabbage Looper [Trichoplusia ni (Hubner)]; assay: Cabbage looper leaf dip (CL), 3-5 days; settings: percent in solution, second-instar larvae
# Outline: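 Squash cotyledons dipped in test solution (acetone-water 50-50, ≤0.1%), dried, offered to 5 second-instar larvae; mortality after 3-5 days gives LC50.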
# [7] = system: Aster Leafhopper [Macrosteles fascifrens (Stal)]; assay: Aster leafhopper on dipped oat seedlings (LH), 48 hours; settings: percent in solution, adults/nymphs
# Outline: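 LC50 values, given as percent of test compound in the dip solution, were derived from dosage-mortality curves over concentrations from 0.05% downward. Mortality was counted 48 hours after ten leafhopper adults/nymphs were enclosed on treated seedlings. The seedlings were oats, about 10 cm tall, briefly dipped in 50-50 acetone-water.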
# [8] = system: Maize weevil [Sitophilus zeamais (Motschulsky)]; assay: Maize weevil on dipped corn seeds (MW), 48 hours; settings: percent in solution, adult weevils
# Outline: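 LC50, given as percent of compound in dipping solution, comes from dosage-mortality curves over concentrations descending from 0.01%. Four corn seeds soaked 2-3 s in 50:50 acetone:water solution were dried and held with 10 adult weevils, about 25° C, mortality read after 48 h.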
structure (smiles),measurement,setting,value
CC(C)C(=Nc1ccc(Cl)cc1)OCc1cccc(Oc2ccccc2)c1 [Compound 2],LC50 HF,[1],4.5 µg
same,LC50 BBA,[2],0.0003%
same,LC50 TBW C (contact),[3],0.0009%
same,LC50 TBW E (eggs),[4],0.04%
same,LC50 BAW,[5],0.01%
same,LC50 CL,[6],0.006%
same,LC50 LH,[7],0.0003%
Clc1ccc(N=C(OCc2cccc(Oc3ccccc3)c2)C(Cl)Cl)c(Cl)c1 [Compound 4],LC50 HF,[1],100 µg
same,LC50 BBA,[2],> 0.05%
same,LC50 TBW C (contact),[3],0.05%
same,LC50 TBW E (eggs),[4],> 0.1%
same,LC50 BAW,[5],0.04%
same,LC50 CL,[6],0.007%
same,LC50 LH,[7],> 0.05%
Clc1ccccc1N=C(OCc1cccc(Oc2ccccc2)c1)C(Cl)Cl [Compound 34],LC50 HF,[1],> 100 µg
same,LC50 BBA,[2],> 0.05%
same,LC50 TBW C (contact),[3],0.01%
same,LC50 TBW E (eggs),[4],> 0.1%
same,LC50 BAW,[5],0.015%
same,LC50 CL,[6],0.015%
CC(C)C(=Nc1cccc(F)c1)OCc1cccc(Oc2ccccc2)c1 [Compound 47],LC50 HF,[1],10 µg
same,LC50 BBA,[2],0.001%
same,LC50 TBW C (contact),[3],0.002%
same,LC50 TBW E (eggs),[4],0.06%
same,LC50 BAW,[5],0.002%
same,LC50 CL,[6],0.002%
same,LC50 LH,[7],0.0003%
CC(C)C(=Nc1ccc(F)cc1F)OCc1cccc(Oc2ccccc2)c1 [Compound 52],LC50 HF,[1],8 µg
same,LC50 BBA,[2],0.001%
same,LC50 TBW C (contact),[3],0.004%
same,LC50 TBW E (eggs),[4],> 0.05%
same,LC50 BAW,[5],0.01%
same,LC50 CL,[6],0.0025%
same,LC50 LH,[7],0.001%
CC(C)C(=Nc1ccc(F)cc1)OCc1ccc(F)c(Oc2ccccc2)c1 [Compound 53],LC50 HF,[1],2 µg
same,LC50 BBA,[2],0.001%
same,LC50 TBW C (contact),[3],0.0025%
same,LC50 TBW E (eggs),[4],0.02%
same,LC50 BAW,[5],0.003%
same,LC50 CL,[6],0.0005%
Cc1c(Cl)cccc1N=C(OCc1cccc(Oc2ccccc2)c1)C(Cl)Cl [Compound 97],LC50 HF,[1],10 µg
same,LC50 BBA,[2],0.001%
same,LC50 TBW C (contact),[3],0.004%
same,LC50 TBW E (eggs),[4],0.04%
same,LC50 BAW,[5],0.01%
same,LC50 CL,[6],0.002%
CCC(C)C(=Nc1ccc(F)c(Cl)c1)OCc1cccc(Oc2ccccc2)c1 (stereo not drawn) [Compound 122],LC50 HF,[1],37 µg
same,LC50 BBA,[2],> 0.05%
same,LC50 TBW E (eggs),[4],0.05%
same,LC50 BAW,[5],0.01%
same,LC50 CL,[6],0.0007%
same,LC50 LH,[7],> 0.05%
same,LC50 MW,[8],> 0.01%
Cc1ccc(N=C(OCc2cccc(Oc3ccccc3)c2)C(Cl)Cl)cc1 [Compound 139],LC50 HF,[1],4.2 µg
same,LC50 BBA,[2],0.001%
same,LC50 TBW C (contact),[3],0.005%
same,LC50 TBW E (eggs),[4],0.05%
same,LC50 BAW,[5],0.007%
same,LC50 CL,[6],0.015%
O=[N+]([O-])c1ccc(N=C(OCc2cccc(Oc3ccccc3)c2)C(Cl)Cl)cc1 [Compound 173],LC50 HF,[1],18 µg
same,LC50 BBA,[2],> 0.05%
same,LC50 TBW C (contact),[3],> 0.1%
same,LC50 TBW E (eggs),[4],> 0.1%
same,LC50 BAW,[5],> 0.1%
same,LC50 CL,[6],0.02%
CC(C)C(=Nc1ccc(Br)c(F)c1)OCc1ccc(F)c(Oc2ccc(F)cc2)c1 [Compound 282],LC50 HF,[1],16 µg
same,LC50 TBW C (contact),[3],0.0007%
same,LC50 TBW E (eggs),[4],0.02%
same,LC50 BAW,[5],0.0025%
same,LC50 CL,[6],0.00007%
same,LC50 MW,[8],0.008%
CC(C)C(=Nc1ccc2c(c1)OC(C)(C)O2)OCc1ccc(F)c(Oc2ccc(F)cc2)c1 [Compound 283],LC50 HF,[1],23 µg
same,LC50 TBW C (contact),[3],0.0009%
same,LC50 TBW E (eggs),[4],0.016%
same,LC50 BAW,[5],0.0013%
same,LC50 CL,[6],0.00009%
same,LC50 MW,[8],> 0.01%
CC(C)C(=Nc1ccc(F)c(I)c1)OCc1ccc(F)c(Oc2ccc(Cl)cc2)c1 [Compound 326],LC50 HF,[1],25 µg
same,LC50 BBA,[2],> 0.05%
same,LC50 TBW C (contact),[3],0.0005%
same,LC50 TBW E (eggs),[4],0.03%
same,LC50 BAW,[5],0.004%
same,LC50 CL,[6],0.00015%
CC(C)C(=Nc1ccc(F)c(Cl)c1F)OCc1cccc(Oc2ccccc2)c1 [Compound 332],LC50 HF,[1],7 µg
same,LC50 BBA,[2],> 0.05%
same,LC50 TBW C (contact),[3],0.00075%
same,LC50 TBW E (eggs),[4],0.015%
same,LC50 BAW,[5],0.0012%
same,LC50 CL,[6],0.00045%
CC(C)C(=Nc1ccc(Br)cc1)OCc1ccc(F)c(Oc2ccc(F)cc2)c1 [Compound 333],LC50 HF,[1],15 µg
same,LC50 BBA,[2],0.001%
same,LC50 TBW C (contact),[3],0.00075%
same,LC50 TBW E (eggs),[4],0.025%
same,LC50 BAW,[5],> 0.1%
same,LC50 CL,[6],0.00024%
same,LC50 MW,[8],> 0.01%
CC(C)C(=Nc1ccc(I)cc1)OCc1ccc(F)c(Oc2ccc(F)cc2)c1 [Compound 335],LC50 HF,[1],34 µg
same,LC50 BBA,[2],0.0008%
same,LC50 TBW C (contact),[3],0.00025%
same,LC50 TBW E (eggs),[4],0.05%
same,LC50 BAW,[5],> 0.1%
same,LC50 CL,[6],0.00027%
same,LC50 MW,[8],> 0.01%
CC(C)C(=Nc1ccc(F)c(Cl)c1)OCc1cc(Oc2ccc(F)cc2)c(F)cc1F [Compound 343],LC50 HF,[1],40 µg
same,LC50 BBA,[2],0.002%
same,LC50 TBW C (contact),[3],0.00025%
same,LC50 TBW E (eggs),[4],> 0.1%
same,LC50 BAW,[5],> 0.1%
same,LC50 CL,[6],0.00027%
same,LC50 MW,[8],> 0.01%
CC(C)C(=Nc1ccc2c(c1)OC(F)(F)O2)OCc1cccc(Oc2ccc(Cl)cc2)c1 [Compound 450],LC50 HF,[1],72 µg
same,LC50 TBW C (contact),[3],0.0001%
same,LC50 TBW E (eggs),[4],0.015%
same,LC50 BAW,[5],0.005%
same,LC50 CL,[6],0.00016%
same,LC50 MW,[8],0.01%
CC(C)C(=Nc1ccc(F)c(Cl)c1)OCc1cccc(Oc2ccc(Cl)cc2)n1 [Compound 463],LC50 HF,[1],8 µg
same,LC50 BBA,[2],0.05%
same,LC50 TBW E (eggs),[4],0.0075%
same,LC50 BAW,[5],0.0024%
same,LC50 CL,[6],0.00009%
same,LC50 LH,[7],0.0003%
same,LC50 MW,[8],0.01%
CC(C)C(=Nc1ccc(F)c(Cl)c1F)OCc1cccc(Oc2ccc(Cl)cc2)n1 [Compound 500],LC50 HF,[1],16 µg
same,LC50 BBA,[2],> 0.05%
same,LC50 TBW C (contact),[3],0.00075%
same,LC50 TBW E (eggs),[4],0.02%
same,LC50 BAW,[5],0.002%
same,LC50 CL,[6],0.00009%
